Laboratory results published in US7691858B2, “Kinase inhibitors and methods of use thereof” (TargeGen, Inc., priority 2006, dated 2010).

Assays:
[1] = biological target: T1, MAPK2 (Homo sapiens, UniProt P28482); test: Kinase panel screen; assay type: biochemical; details: Compound I and ATP 10 μM
T1 construct: purchased Upstate USA or Invitrogen (commercial screening service)

[2] = system: Akt phosphorylation; test: VEGF-induced Akt phosphorylation in vivo (lung lysates, Western blot); parameters: species or system Sprague Dawley rats; details: 0.5 and 5 mg/kg iv, VEGF 30, 60 or 120 min later
Description: FIG. 5. Inhibition of VEGF-induced Akt phosphorylation in vivo. […] Lungs were explanted 5 min after VEGF or saline injection, processed to tissue lysates, and lysates probed in Western blots to detect either phosphorylated Akt or total Akt (as a loading control).
The ability of compounds to impact PI3K activity in vivo was assessed by examining compound influence on vascular endothelial growth factor (VEGF)-induced Akt kinase phosphorylation (VEGF stimulation being an inducer of PI3K activity, and Akt kinase being a direct target of PI3K). Sprague Dawley rats were first injected intravenously (iv) with either vehicle or test compound at 5 mg/kg, and then 30, 60 or 120 min later injected iv with VEGF. Five minutes later, lungs were harvested and used to generate tissue lysates, which were then probed for phosphorylated Akt using Western blot technology; non-phosphorylated Akt was also probed in the same blots as a loading control. In other studies, test compounds was dosed at either 0.5 or 5 mg/kg, and VEGF delivered 60 min later, in order to assess the dose-response relationship of a compound's activities. […]

[3] = biological target: T2, Fms (Homo sapiens, UniProt P07333); test: Kinase panel screen; assay type: biochemical; details: Compound I and ATP 10 μM
T2 construct: purchased Upstate USA or Invitrogen (commercial screening service)
T2 sequence (P07333 20-972): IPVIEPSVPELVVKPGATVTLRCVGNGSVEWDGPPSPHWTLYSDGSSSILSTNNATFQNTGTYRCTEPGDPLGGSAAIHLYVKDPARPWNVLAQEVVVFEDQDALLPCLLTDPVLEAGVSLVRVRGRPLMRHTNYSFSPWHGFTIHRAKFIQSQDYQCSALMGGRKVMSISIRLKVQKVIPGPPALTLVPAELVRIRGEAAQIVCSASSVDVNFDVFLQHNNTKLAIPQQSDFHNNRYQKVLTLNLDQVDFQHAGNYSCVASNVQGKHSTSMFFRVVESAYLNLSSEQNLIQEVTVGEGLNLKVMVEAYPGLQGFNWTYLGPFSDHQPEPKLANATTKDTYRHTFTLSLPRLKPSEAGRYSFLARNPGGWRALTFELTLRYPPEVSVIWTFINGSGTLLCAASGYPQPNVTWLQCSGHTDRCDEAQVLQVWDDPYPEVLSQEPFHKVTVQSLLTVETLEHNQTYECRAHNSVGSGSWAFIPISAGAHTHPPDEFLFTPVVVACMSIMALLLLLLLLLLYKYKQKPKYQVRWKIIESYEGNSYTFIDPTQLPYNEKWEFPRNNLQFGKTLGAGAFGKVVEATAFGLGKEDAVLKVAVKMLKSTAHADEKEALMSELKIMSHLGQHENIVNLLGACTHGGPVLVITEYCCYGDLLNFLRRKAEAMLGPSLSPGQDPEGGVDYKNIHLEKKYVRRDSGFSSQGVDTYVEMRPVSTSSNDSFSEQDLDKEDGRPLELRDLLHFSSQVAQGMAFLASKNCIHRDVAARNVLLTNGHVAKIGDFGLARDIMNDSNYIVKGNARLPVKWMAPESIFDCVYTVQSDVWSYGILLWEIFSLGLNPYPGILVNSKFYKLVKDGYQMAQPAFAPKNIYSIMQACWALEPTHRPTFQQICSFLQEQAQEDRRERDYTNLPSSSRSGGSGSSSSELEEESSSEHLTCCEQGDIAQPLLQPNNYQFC

[4] = system: myocardial infarct; test: Rodent model of acute myocardial infarct (LAD occlusion/reperfusion); assay type: in vivo, Sprague-Dawley rats
Description: A rodent model of acute myocardial infarct, in which the proximal left anterior descending coronary artery (LAD) is occluded for 60 min followed by reperfusion, was used to determine whether test agents reduced infarct size at 24 hours.
Myocardial infarcts were created in Sprague-Dawley rats (200-300 g body weight) by a 60 min occlusion of the LAD followed by LAD reperfusion. […] At 24 hr post-treatment, the ischemic zone (area at-risk, AAR) was delineated by re-ligation of the LAD followed by IV injection of alkali blue dye, after which hearts were sectioned along the short axis and stained using triphenyltetrazolium chloride to delineate viable from infarcted myocardium. Photographic images were then analyzed using morphometric software to calculate infarct area as a percent of the at-risk area.
Rodent MI model: All animal studies followed current “NIH Guidelines for the Use of Laboratory Animals” and were performed according to IACUC-approved protocols. Sprague-Dawley rats (275-300 g) were anesthetized using inhaled isoflurane after which chest walls were shaved and swabbed with iodine. Animals were then intubated and maintained on 2% isoflurane (delivered in 30% O2/70% N2), with optimal respiratory rate and stroke volumes set by a volume-controlled safety ventilator (Inspira Advanced Safety Ventilator; Harvard Apparatus, Holliston, Mass.). Body temperatures were maintained at 35-37° C. using heating pads and five-lead electrocardiograms established. For each animal, a left thoracotomy was performed at the third intercostal space, the heart was exposed and a suture snare tightened around the LAD at the point it appeared from beneath the left atrium. Ischemia was confirmed from blanching of the left ventricle (LV) as well as changes in ECG patterns. After the desired period of occlusion (60 min in the standard model), the suture snare was loosened to allow complete reperfusion (but retained in place using shallow sutures) and the chest closed in layers. […].
For infarct size determination, LAD occlusion was repeated on each animal 24 hr after the initial occlusion. The ischemic zone (area-at-risk or AAR) was then delineated by i.v. injection of Evans blue dye (5 ml of a 10% saline solution containing 100 U/ml sodium heparin). The heart was explanted, atria and right ventricle trimmed free, and the LV (septal and free walls) frozen at −20° C. to induce rigor. After thawing on ice, the LV was subdivided into six 2 mm thick sections along the short axis using a metal form to guide dissection. Heart sections were stained for 20 min in 37° C. triphenyltetrazolium chloride (TTC, 2% in 0.04 M K2HPO4/0.17 M sucrose) to delineate viable from infarcted myocardium, fixed for 20 min in 10% formalin, then rinsed in saline. For each section, photographs were taken of both anterior and posterior surfaces and these images analyzed (by personnel blinded as to treatment identity) using a morphometric software package (Image Pro Plus; Media Cybernetics, Silver Spring, Md.). The following areas were calculated, based on their differing pixel densities: non-ischemic zone (Evans blue-stained), viable-but-ischemic zone (free of Evans blue but TTC-stained), and infarct-within-ischemic zone (free of both Evans blue and TTC stain). Area values for anterior and posterior views were averaged, and these values used to calculate the following AAR=Viable-but-ischemic Area+Infarct Area Equation 1 Total LV Area=AAR+Non-ischemic Area Equation 2

[5] = biological target: T3, PKD2 (Homo sapiens, UniProt Q9BZL6); test: Kinase panel screen; assay type: biochemical; details: Compound I and ATP 10 μM
T3 construct: purchased Upstate USA or Invitrogen (contract screening service)

[6] = biological target: T4, CSK (Homo sapiens, UniProt P41240); test: Kinase panel screen; assay type: biochemical; details: Compound I and ATP 10 μM
T4 construct: purchased Upstate USA or Invitrogen (commercial screening service)
T4 sequence (P41240 whole entry): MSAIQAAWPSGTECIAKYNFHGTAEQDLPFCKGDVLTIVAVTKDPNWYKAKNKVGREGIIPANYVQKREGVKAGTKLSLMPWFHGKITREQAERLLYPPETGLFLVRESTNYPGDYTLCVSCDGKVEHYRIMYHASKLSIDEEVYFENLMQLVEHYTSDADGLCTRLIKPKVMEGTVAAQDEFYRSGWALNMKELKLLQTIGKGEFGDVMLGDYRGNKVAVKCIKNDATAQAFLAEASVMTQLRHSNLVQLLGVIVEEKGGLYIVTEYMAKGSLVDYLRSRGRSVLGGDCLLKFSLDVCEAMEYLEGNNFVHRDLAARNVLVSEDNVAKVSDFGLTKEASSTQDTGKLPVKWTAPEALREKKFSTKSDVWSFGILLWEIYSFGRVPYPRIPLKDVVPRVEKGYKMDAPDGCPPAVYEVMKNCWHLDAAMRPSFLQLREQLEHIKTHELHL

[7] = biological target: T5, ALK (Homo sapiens, UniProt Q9UM73); test: Kinase panel screen; assay type: biochemical; details: Compound I and ATP 10 μM
T5 construct: purchased Upstate USA or Invitrogen (contract screening service)
T5 sequence (Q9UM73 19-1620): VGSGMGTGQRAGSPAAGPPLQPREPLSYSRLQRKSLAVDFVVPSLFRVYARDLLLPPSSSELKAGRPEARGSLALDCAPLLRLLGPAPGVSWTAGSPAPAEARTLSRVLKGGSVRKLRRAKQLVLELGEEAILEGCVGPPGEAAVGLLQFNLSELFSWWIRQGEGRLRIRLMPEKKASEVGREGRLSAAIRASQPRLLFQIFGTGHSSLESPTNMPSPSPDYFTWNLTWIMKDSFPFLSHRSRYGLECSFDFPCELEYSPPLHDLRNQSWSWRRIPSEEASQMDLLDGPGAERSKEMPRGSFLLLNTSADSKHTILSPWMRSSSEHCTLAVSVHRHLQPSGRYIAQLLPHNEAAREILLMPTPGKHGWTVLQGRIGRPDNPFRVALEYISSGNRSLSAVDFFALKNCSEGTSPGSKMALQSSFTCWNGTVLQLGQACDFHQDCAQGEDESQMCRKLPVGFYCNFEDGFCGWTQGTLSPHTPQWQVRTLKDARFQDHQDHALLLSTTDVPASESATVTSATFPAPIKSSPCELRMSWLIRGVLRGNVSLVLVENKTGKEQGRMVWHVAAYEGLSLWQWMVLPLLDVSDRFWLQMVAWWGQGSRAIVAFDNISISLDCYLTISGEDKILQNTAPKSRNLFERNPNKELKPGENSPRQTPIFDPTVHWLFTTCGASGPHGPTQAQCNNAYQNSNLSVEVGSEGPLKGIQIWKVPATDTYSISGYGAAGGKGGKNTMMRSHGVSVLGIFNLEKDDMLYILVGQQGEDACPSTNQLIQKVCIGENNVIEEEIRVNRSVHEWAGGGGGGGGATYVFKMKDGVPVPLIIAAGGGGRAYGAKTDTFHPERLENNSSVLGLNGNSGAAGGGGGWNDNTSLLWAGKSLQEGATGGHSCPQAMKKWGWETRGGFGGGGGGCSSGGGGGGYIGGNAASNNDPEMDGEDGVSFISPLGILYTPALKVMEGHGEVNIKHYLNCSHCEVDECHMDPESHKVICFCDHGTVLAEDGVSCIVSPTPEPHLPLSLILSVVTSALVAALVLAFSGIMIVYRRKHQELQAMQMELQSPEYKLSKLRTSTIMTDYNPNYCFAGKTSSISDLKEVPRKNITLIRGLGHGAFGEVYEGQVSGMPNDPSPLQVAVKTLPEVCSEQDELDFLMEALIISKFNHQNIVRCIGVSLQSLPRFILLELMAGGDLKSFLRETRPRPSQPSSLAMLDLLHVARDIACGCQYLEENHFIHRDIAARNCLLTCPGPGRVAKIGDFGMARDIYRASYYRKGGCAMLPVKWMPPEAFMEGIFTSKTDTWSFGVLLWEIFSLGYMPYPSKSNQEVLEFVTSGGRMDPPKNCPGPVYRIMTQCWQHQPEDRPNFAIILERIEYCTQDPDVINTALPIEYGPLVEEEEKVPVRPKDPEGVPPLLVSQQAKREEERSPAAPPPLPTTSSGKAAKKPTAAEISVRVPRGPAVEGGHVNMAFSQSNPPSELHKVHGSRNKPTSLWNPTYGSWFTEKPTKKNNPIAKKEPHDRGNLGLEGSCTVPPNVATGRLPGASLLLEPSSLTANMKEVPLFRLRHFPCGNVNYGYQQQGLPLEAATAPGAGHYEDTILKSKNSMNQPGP

[8] = biological target: T6, TrkA (Homo sapiens, UniProt P04629); test: Kinase panel screen; assay type: biochemical; details: Compound I and ATP 10 μM
T6 construct: purchased Upstate USA or Invitrogen (contract screening service)

[9] = biological target: T7, PKBa (Homo sapiens, UniProt P31749); test: Kinase panel screen; assay type: biochemical; details: read-out: Percent Control, PKBa
T7 construct: purchased Upstate USA or Invitrogen (contract screening service)
T7 sequence (P31749 whole entry): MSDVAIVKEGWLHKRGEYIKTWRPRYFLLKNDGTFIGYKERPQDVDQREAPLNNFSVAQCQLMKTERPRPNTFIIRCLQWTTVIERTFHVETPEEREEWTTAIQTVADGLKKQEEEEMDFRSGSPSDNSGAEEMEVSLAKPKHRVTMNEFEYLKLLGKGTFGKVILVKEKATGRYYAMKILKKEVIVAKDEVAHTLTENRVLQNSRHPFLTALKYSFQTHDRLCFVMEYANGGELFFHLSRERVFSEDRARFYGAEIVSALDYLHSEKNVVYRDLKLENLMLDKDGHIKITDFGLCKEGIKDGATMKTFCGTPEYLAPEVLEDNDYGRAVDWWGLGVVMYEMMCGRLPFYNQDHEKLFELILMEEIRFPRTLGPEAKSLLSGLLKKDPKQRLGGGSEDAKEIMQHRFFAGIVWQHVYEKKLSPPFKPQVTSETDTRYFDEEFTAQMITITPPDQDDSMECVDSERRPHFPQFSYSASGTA

[10] = biological target: T8, Fgr (Homo sapiens, UniProt P09769); test: Kinase panel screen; assay type: biochemical; details: Compound I and ATP 10 μM
T8 construct: purchased Upstate USA or Invitrogen (contract screening service)
T8 sequence (P09769 whole entry): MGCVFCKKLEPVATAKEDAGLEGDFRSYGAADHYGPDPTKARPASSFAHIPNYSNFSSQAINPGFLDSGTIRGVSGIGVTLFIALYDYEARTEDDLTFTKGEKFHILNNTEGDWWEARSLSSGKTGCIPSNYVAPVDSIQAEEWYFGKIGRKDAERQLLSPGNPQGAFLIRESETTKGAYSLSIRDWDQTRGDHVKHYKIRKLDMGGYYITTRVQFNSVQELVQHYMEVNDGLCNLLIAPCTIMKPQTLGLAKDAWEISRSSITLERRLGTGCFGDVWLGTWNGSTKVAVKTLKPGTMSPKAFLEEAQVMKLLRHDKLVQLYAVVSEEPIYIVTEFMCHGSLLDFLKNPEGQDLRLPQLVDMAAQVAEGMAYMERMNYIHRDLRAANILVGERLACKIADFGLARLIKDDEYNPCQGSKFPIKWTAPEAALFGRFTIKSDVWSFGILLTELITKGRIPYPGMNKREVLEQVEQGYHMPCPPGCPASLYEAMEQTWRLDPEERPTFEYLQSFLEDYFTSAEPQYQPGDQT

T1 sequence (P28482 whole entry): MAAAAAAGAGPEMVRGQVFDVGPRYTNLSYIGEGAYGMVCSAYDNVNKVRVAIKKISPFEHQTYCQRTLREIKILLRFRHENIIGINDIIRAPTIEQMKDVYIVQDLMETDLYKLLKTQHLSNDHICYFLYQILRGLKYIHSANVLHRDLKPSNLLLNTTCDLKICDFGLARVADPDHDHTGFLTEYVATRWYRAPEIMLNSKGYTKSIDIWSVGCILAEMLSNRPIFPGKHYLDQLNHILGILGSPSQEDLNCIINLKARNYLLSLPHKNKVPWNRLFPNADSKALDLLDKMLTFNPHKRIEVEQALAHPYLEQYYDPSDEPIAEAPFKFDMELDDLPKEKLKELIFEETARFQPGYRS

## Nc1nc(N)c2nc(-c3cccc(O)c3)c(-c3cccc(O)c3)nc2n1 [Compound I, 6,7-bis-(3-hydroxyphenyl)-pteridine-2,4-diamine]
[1]
  Percent Control, MAPK2: 84%
[2]
  VEGF-induced Akt phosphorylation in lung lysates: blocked
[2]; listed as 6,7-bis-(3-hydroxyphenyl)-pteridine-2,4-diamine
  VEGF-induced Akt phosphorylation in lung lysates: Inhibition
[3]
  Percent Control, Fms: 77%
[4]; 0.1 mg/kg, delivery between 0 and 3 h post-reperfusion (FIG. 6b)
  reductions in infarct development vs. vehicle-treated controls: 58-67%
[4]; rats, 0.3 mg/kg IV bolus 60 min into reperfusion, 24 hr, N=8
  reduction in infarct size vs. vehicle controls: 43%
[4]; rats, 0.3 mg/kg IV bolus 60 min into reperfusion, mean±SD (±9), vehicle 62%±7
  infarct area as percentage of ischemic territory: 35%
[4]; single 0.5 mg/kg bolus one hour post-reperfusion, 4 weeks
  improvement in fractional shortening: 24%
[4]; single 0.5 mg/kg bolus one hour post-reperfusion, echocardiography 4 weeks, mean±SEM, vehicle 27.2±1.9
  percent left ventricular long axis fractional shortening: 33.6±2.0%
[4]; single i.v. bolus 60 mm post-reperfusion
  reduction of infarct size: ≥ 40%
[5]
  Percent Control, PKD2: 37%
[6]
  Percent Control, CSK: 114%
[7]
  Percent Control, ALK: 48%
[8]
  Percent Control, TrkA: 57%
[9]
  remaining activity at 10 µM: 62%
[10]
  Percent Control, Fgr: 72%
